Each structure is given as a SMILES string.

Assay [1] deals with T1, catalytic domain of MMP-3 enzyme (Homo sapiens, UniProt P08254).
T1 construct: stock solution of the catalytic domain of MMP-3 enzyme (Biomol, Cat. No. SE-109); purchased Biomol SE-109
In words: Assay for determining MMP-3 inhibition (fluorescent substrate NFF-3). Format: biochemical. Conditions: read-out: Summary of MMP-3 Activity for Compounds (IC50 MMP-3, group). Here is the method:
Assay for Determining MMP-3 Inhibition
The typical assay for MMP-3 activity is carried out in assay buffer comprised of 50 mM MES, pH 6.0, 10 mM CaCl2 and 0.05% Brij-35. Different concentrations of tested compounds are prepared in assay buffer in 50 μl aliquots. 10 μl of a 100 nM stock solution of the catalytic domain of MMP-3 enzyme (Biomol, Cat. No. SE-109) is added to the compound solution. The mixture of enzyme and compound in assay buffer is thoroughly mixed and incubated for 10 min at room temperature. Upon the completion of incubation, the assay is started by addition of 40 μl of a 12.5 μM stock solution of NFF-3 fluorescent substrate (Calbiochem, Cat. No. 480455). The time-dependent increase in fluorescence is measured at the 330 nm excitation and 390 nm emission by an automatic plate multireader. The IC50 values are calculated from the initial reaction rates.

Assay [2] deals with T2, catalytic domain of MMP-13 enzyme (Homo sapiens, UniProt P45452).
T2 construct: stock solution of catalytic domain of MMP-13 enzyme (produced by Alantos or commercially available from Invitek); purchased Invitek (Berlin) 30100812
The assay is described as follows: Assay for determining MMP-13 inhibition (fluorescent substrate). In kind it is biochemical. Conditions: read-out: Summary of MMP-13 Activity for Compounds (IC50 MMP-13, group). Here is the method:
Assay for Determining MMP-13 Inhibition
The typical assay for MMP-13 activity is carried out in assay buffer comprised of 50 mM Tris, pH 7.5, 150 mM NaCl, 5 mM CaCl2 and 0.05% Brij-35. Different concentrations of tested compounds are prepared in assay buffer in 50 μl aliquots. 10 μl of a 50 nM stock solution of catalytic domain of MMP-13 enzyme (produced by Alantos or commercially available from Invitek (Berlin), Cat. No. 30100812) is added to the compound solution. The mixture of enzyme and compound in assay buffer is thoroughly mixed and incubated for 10 min at room temperature. Upon the completion of incubation, the assay is started by addition of 40 μl of a 12.5 μM stock solution of MMP-13 fluorescent substrate (Calbiochem, Cat. No. 444235). The time-dependent increase in fluorescence is measured at the 320 nm excitation and 390 nm emission by automatic plate multireader. The IC50 values are calculated from the initial reaction rates.

T1 sequence (P08254 100-272 limits assumed): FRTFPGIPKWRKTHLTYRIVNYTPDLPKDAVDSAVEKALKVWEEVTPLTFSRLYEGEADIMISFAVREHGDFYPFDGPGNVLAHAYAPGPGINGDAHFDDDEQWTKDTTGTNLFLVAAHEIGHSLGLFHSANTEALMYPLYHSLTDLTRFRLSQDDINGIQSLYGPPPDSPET

As to `O=C1COc2ccc(CNC(=O)c3ncnc4c(C(=O)O)c[nH]c34)cc2N1` [Example 21], the IC50 – broadly, the midpoint of a concentration-inhibition curve – in assay [1] was in the range of 3 to 100 nM; in assay [2], 101 to 20000 nM.

With `O=C(O)c1c[nH]c2c(C(=O)NCc3ccc(F)cc3)ncnc12` [Example 19], the IC50 in assay [1] and in assay [2] was 101 to 20000 nM each time.

Regarding `CC(C)(C)OC(=O)Nc1c[nH]c2c(C(=O)NCc3ccc4c(c3)NC(=O)CO4)ncnc12` [Example 1], the IC50 in assay [1] was in the range of 101 to 20000 nM.

Take `Nc1n[nH]c2c(C(=O)NCc3ccc(F)c(Cl)c3)ncnc12` [Example 22]: the IC50 in assay [1] and in assay [2] was 101 to 20000 nM in each case.

Take `O=C1COc2ccc(CNC(=O)c3ncnc4c(NS(=O)(=O)Cc5ccccc5)c[nH]c34)cc2N1` [Example 27]: the IC50 in assay [1] and in assay [2] was 101 to 20000 nM throughout.

As to `Nc1n[nH]c2c(C(=O)NCc3ccc4c(c3)NC(=O)CO4)ncnc12` [Example 23], the IC50 in assay [1] fell in the range of 101 to 20000 nM; in assay [2], 3 to 100 nM.

As to `O=C1COc2ccc(CNC(=O)c3ncnc4nc[nH]c34)cc2N1` [Example 9], the IC50 in assay [1] and in assay [2] was 101 to 20000 nM throughout.

As to `CS(=O)(=O)Nc1c[nH]c2c(C(=O)NCc3ccc4c(c3)NC(=O)CO4)ncnc12` [Example 25], the IC50 in assay [1] is 3 to 100 nM; in assay [2], 101 to 20000 nM.

As for `O=C(NCc1ccc(F)cc1)c1ncnc2c(Br)c[nH]c12` [Example 5], the IC50 in assay [1] and in assay [2] was 101 to 20000 nM each time.

On to `O=C1COc2ccc(CNC(=O)c3ncnc4c(NS(=O)(=O)c5cccs5)c[nH]c34)cc2N1` [Example 26], for which the IC50 in assay [1] and in assay [2] was 101 to 20000 nM each time.

Regarding `O=C(NCc1ccc(F)c(Cl)c1)c1ncnc2c([N+](=O)[O-])c[nH]c12` [Example 7], the IC50 in assay [1] and in assay [2] was 101 to 20000 nM each time.

In the case of `O=C1COc2ccc(CNC(=O)c3ncnc4cc[nH]c34)cc2N1` [Example 13], the IC50 in assay [1] and in assay [2] was 101 to 20000 nM in each case.

Consider `O=C1COc2ccc(CNC(=O)c3ncnc4c(NS(=O)(=O)c5ccc(Cl)cc5)c[nH]c34)cc2N1` [Example 28], for which the half-maximal inhibitory concentration (IC50) in assay [1] and in assay [2] was 101 to 20000 nM in each case.

With `O=C1COc2ccc(CNC(=O)c3ncnc4c([N+](=O)[O-])c[nH]c34)cc2N1` [Example 6], the IC50 in assay [1] and in assay [2] was 101 to 20000 nM each time.

Regarding `O=C(O)c1c[nH]c2c(C(=O)NCc3ccc(F)c(Cl)c3)ncnc12` [Example 20], the IC50 in assay [1] and in assay [2] was 101 to 20000 nM in each case.

In the case of `CCOC(=O)c1c[nH]c2c(C(=O)NCc3ccc4c(c3)NC(=O)CO4)ncnc12` [Example 8], the IC50 in assay [1] fell in the range of 3 to 100 nM; in assay [2], 101 to 20000 nM.

With `Nc1c[nH]c2c(C(=O)NCc3ccc4c(c3)NC(=O)CO4)ncnc12` [Example 15], the IC50 in assay [1] and in assay [2] was 101 to 20000 nM in each case.

With `O=C(NCc1ccc(F)c(Cl)c1)c1ncnc2c(Br)c[nH]c12` [Example 4], the IC50 in assay [1] and in assay [2] was 101 to 20000 nM in each case.

For the origin of these results see US20080221092A1, “Heterobicyclic metalloprotease inhibitors” (priority 2006, published 2008).
